Where a name gives a salt, the structure may show the parent alone.
Assay: Blood concentration after oral administration to rat or dog
Assay type: in vivo
Details: gavage to male SD rat or male beagle, suspended in 0.5% methylcellulose, 30 mg/kg or 100 mg/kg, respectively, HPLC or LC-MS/MS; for blood concentration of compound (A) after administration of the Example compound: 0.25-24 hr
Experimental: Experimental Example 2: Blood Concentration after Oral Administration to Rat or Dog
Compound (A) or Example compound suspended in 0.5% methylcellulose solution was administered by gavage to male SD rat or male beagle at a dose of 30 mg/kg or 100 mg/kg, respectively. At 0.25, 0.5, 1, 2, 4, 6 and 24 hr after administration, blood samples were collected from the cervical vein with a 1 mL syringe and was added in a 2.0 mL tube to which heparin was added. The blood was treated with acetonitrile, and the blood concentration of compound (A) was determined by using HPLC or LC-MS/MS.

Compound	blood concentration of compound (A) after administration of the Example compound	maximum blood concentration of compound (A), compared with administration of compound (A) itself
N[C@@H](CO)C(=O)OCCOC(=O)CC(=O)c1cc2c(o1)C(=O)c1ccccc1C2=O [Example 75]	emerged in the blood over time	higher
CC(OC(=O)CC(=O)c1cc2c(o1)C(=O)c1ccccc1C2=O)OC(=O)OCC1COC(C)(C)O1 (stereo not drawn) [Example 66]	emerged in the blood over time	higher
CCN(CC)CC#CCOC(=O)CC(=O)c1cc2c(o1)C(=O)c1ccccc1C2=O.Cl [Example 93]	emerged in the blood over time	higher
COCCOC(=O)CC(=O)c1cc2c(o1)C(=O)c1ccccc1C2=O [Example 79]	emerged in the blood over time	higher
O=C(/C=C(\O)c1cc2c(o1)C(=O)c1ccccc1C2=O)OCCOCCO [Example 125]	emerged in the blood over time	higher
C[C@H](N)C(=O)OCCOC(=O)CC(=O)c1cc2c(o1)C(=O)c1ccccc1C2=O.Cl [Example 74]	emerged in the blood over time	higher
O=C(/C=C(\[O-])c1cc2c(o1)C(=O)c1ccccc1C2=O)OCC(O)CO.[Na+] (stereo not drawn) [Example 88]	emerged in the blood over time	higher
O=C(/C=C(\O)c1cc2c(o1)C(=O)c1ccccc1C2=O)OCC(O)CO (stereo not drawn) [Example 95]	emerged in the blood over time	higher
O=C(/C=C(\O)c1cc2c(o1)C(=O)c1ccccc1C2=O)OCCO [Example 13, 2-Hydroxyethyl 3-(4,9-dioxo-4,9-dihydro-naphtho[2,3-b]furan-2-yl)-3-hydroxy-acrylate Ethanolamine Salt]	emerged in the blood over time	higher
O=C(/C=C(\O)c1cc2c(o1)C(=O)c1ccccc1C2=O)OCCCO [Example 133]	emerged in the blood over time	higher
O=C(CC(=O)c1cc2c(o1)C(=O)c1ccccc1C2=O)OCOC(=O)C(O)CO (stereo not drawn) [Example 60]	emerged in the blood over time	higher
O=C(/C=C(\O)c1cc2c(o1)C(=O)c1ccccc1C2=O)OCC(CO)CO [Example 126]	emerged in the blood over time	higher
CC(OC(=O)CC(=O)c1cc2c(o1)C(=O)c1ccccc1C2=O)OC(=O)OC[C@@H](O)CO (stereo partly drawn) [Example 65]	emerged in the blood over time	higher
CC(C)N1CC(OC(=O)CC(=O)c2cc3c(o2)C(=O)c2ccccc2C3=O)C1.Cl [Example 114]	emerged in the blood over time	higher
O=C(/C=C(\O)c1cc2c(o1)C(=O)c1ccccc1C2=O)OCCOCC(O)CO (stereo not drawn) [Example 129]	emerged in the blood over time	higher
CC(C)[C@H](N)C(=O)OCCCOC(=O)CC(=O)c1cc2c(o1)C(=O)c1ccccc1C2=O.Cl [Example 120]	emerged in the blood over time	higher
COCC(C)(C)C(=O)OC(C)OC(=O)CC(=O)c1cc2c(o1)C(=O)c1ccccc1C2=O (stereo not drawn) [Example 54]	emerged in the blood over time	higher
Cl.O=C(CC(=O)c1cc2c(o1)C(=O)c1ccccc1C2=O)OCC#CCN1CCCC1 [Example 116]	emerged in the blood over time	higher

From US11267797B2, “Anticancer agent” (Kyoto Pharmaceutical Industries, Ltd., priority 2014, dated 2022)
